Results reported in PMC3761942 (Bioorganic & medicinal chemistry, 2013).
“Also recorded” adds a separate entry of the source. Each block holds one molecule with its values, some of them ahead of it.

Tests used:
guanase = settings: in tissue cultures; cited from earlier work
[1] = molecular target: T1, guanase from rabbit liver (Oryctolagus cuniculus, UniProt G1T386); assay type: biochemical
T1 sequence (G1T386 1-454): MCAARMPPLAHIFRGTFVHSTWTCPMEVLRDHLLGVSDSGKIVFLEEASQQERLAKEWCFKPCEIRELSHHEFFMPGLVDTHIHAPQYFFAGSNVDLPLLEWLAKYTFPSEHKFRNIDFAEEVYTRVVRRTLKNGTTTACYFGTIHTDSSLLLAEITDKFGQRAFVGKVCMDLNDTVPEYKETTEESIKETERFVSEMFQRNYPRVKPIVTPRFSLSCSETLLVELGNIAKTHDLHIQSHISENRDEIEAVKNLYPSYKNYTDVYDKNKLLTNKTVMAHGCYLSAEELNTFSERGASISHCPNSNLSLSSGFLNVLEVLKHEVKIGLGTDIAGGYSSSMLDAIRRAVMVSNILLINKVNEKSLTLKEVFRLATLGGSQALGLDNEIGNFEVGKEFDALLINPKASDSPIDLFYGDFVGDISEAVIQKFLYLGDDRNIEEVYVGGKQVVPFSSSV

[2] = Chemical stability in aqueous medium; assay type: physicochemical

SMILES: O=C1NC(O)CNc2nc[nH]c21 (centres unmarked) [Azepinomycin]
IC50 (guanase): ~5 µM

Km ([1]; read-out: KM of enzyme with guanine as substrate, 25 °C, pH 7.4): 5.5 µM
SMILES: Nc1nc2nc[nH]c2c(=O)[nH]1 [guanine, reference compound]

Stability in aqueous acidic environment ([2]; aqueous acidic environment (1N HCl)): reasonably stable
SMILES: O=C1NCC(O)Nc2c1ncn2Cc1ccccc1 (centres unmarked) [Compound 1, 3-Benzyl-5-hydroxy-4,5,6,7-tetrahydroimidazo[4,5-e] [1,4]diazepin-8(3H)-one]
Stability under neutral conditions ([2]; neutral aqueous medium): quite unstable and decomposed; also recorded: decomposes in neutral aqueous medium over time

Ki ([1]; Ki): ~8 µM
SMILES: COC1CNC(=O)c2nc[nH]c2N1Cc1ccccc1 (centres unmarked) [Compound 9, 4-Benzyl-5-methoxy-4,5,6,7-tetrahydroimidazo[4,5-e][1,4]diazepin-8(3H)-one]
